The values below come from patent US20240425501A1, “NOVEL BICYCLIC HETEROARYL DERIVATIVES AS SOS1:KRAS PROTEINPROTEIN INTERACTION INHIBITORS” (SATYARX PHARMA INNOVATIONS PVT LTD, priority 2021, published 2024).

In general, inhibition refers to the percentage by which the read-out fell short of the control.

The experiment has as its target T1, hSOS1 enzyme / KRAS (G12C), GST-Tag, GDP-bound protein (Homo sapiens, UniProt Q07889).
T1 sequence (Q07889 564-1049 limits assumed): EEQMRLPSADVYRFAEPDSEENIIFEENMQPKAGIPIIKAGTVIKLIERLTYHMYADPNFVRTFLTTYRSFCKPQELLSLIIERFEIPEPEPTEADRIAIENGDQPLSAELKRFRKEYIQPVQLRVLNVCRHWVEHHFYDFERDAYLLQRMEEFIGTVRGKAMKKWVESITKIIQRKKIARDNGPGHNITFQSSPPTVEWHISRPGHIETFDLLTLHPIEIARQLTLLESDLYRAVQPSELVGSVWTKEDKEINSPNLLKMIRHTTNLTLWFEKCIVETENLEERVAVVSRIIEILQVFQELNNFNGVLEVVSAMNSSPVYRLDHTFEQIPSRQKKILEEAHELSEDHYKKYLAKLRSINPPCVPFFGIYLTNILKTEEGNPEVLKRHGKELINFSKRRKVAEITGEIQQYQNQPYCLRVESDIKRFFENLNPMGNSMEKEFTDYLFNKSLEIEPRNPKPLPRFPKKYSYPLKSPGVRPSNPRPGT
In words: SOS1-mediated KRAS guanine nucleotide exchange (GEF) assay, HTRF ("On Assay"). Format: biochemical. The following applies: 1 μM compound. The procedure, abridged:
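Compounds were preincubated 10 min at 25 °C with GDP-loaded GST-KRAS G12C and Tb-anti-GST (working solution 100 nM/2 nM) in HEPES pH 7, 5 mM MgCl2. hSOS1 plus DY-647P-labelled GTP (working solution 20 nM/200 nM) was then added for 10 min. HTRF was read at 665/615 nm with 320 nm excitation, and wells lacking SOS1 served as negative control.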
For orientation: Time-resolved FRET reads energy transfer from a long-lived donor to a nearby acceptor.
Regarding `CNCCC(=O)Nc1nc(N[C@H](C)c2cc(N)cc(C(F)(F)F)c2)c2cc(N3CCOCC3)ncc2n1` [Example 79, (R)—N-(4-((1-(3-amino-5-(trifluoromethyl)phenyl)ethyl)amino)-6-morpholinopyrido[3,4-d]pyrimidin-2-yl)-3-(methylamino)propanamide], the inhibition at 1 µM is no less than 50%. The value for `CCN1CCN(c2cnc3nc(Cl)nc(N[C@H](C)c4cc(N)cc(C(F)(F)F)c4)c3c2)CC1` [Example 80, (R)—N-(1-(3-amino-5-(trifluoromethyl)phenyl)ethyl)-2-chloro-6-(4-ethylpiperazin-1-yl)pyrido[2,3-d]pyrimidin-4-amine] was no less than 50%. Consider `CCN1CCN(c2cnc3nc(OC)nc(N[C@H](C)c4cc(N)cc(C(F)(F)F)c4)c3c2)CC1` [Example 81, (R)—N-(1-(3-amino-5-(trifluoromethyl)phenyl)ethyl)-6-(4-ethylpiperazin-1-yl)-2-methoxypyrido[2,3-d]pyrimidin-4-amine], for which the inhibition at 1 µM was no less than 50%. The value for `C[C@@H](Nc1nc(Cl)nc2ncc(N3CCN(C)CC3)cc12)c1cc(N)cc(C(F)(F)F)c1` [Example 82, (R)—N-(1-(3-amino-5-(trifluoromethyl)phenyl)ethyl)-2-chloro-6-(4-methylpiperazin-1-yl)pyrido[2,3-d]pyrimidin-4-amine] was no less than 50%. Compound `C[C@@H](Nc1nc(Cl)nc2ncc(N3CCCCC3)cc12)c1cc(N)cc(C(F)(F)F)c1` [Example 83, (R)—N-(1-(3-amino-5-(trifluoromethyl)phenyl)ethyl)-2-chloro-6-(piperidin-1-yl)pyrido[2,3-d]pyrimidin-4-amine] returned an inhibition at 1 µM of no less than 50%.

`C[C@@H](Nc1nc(Cl)nc2ncc(N3CCOCC3)cc12)c1cc(N)cc(C(F)(F)F)c1` [Example 84, (R)—N-(1-(3-amino-5-(trifluoromethyl)phenyl)ethyl)-2-chloro-6-morpholinopyrido[2,3-d]pyrimidin-4-amine] showed an inhibition at 1 µM of no less than 50%.

In turn, `CCN1CCN(c2cc3c(N[C@H](C)c4cc(N)cc(C(F)(F)F)c4)cnnc3cn2)CC1` [Example 85, (R)—N-(1-(3-amino-5-(trifluoromethyl)phenyl)ethyl)-6-(4-ethylpiperazin-1-yl)pyrido[3,4-c]pyridazin-4-amine] came in with an inhibition at 1 µM of no less than 50%. In turn, `CCN1CCN(c2cnc3c(C)nnc(N[C@H](C)c4cc(N)cc(C(F)(F)F)c4)c3c2)CC1` [Example 86, (R)—N-(1-(3-amino-5-(trifluoromethyl)phenyl)ethyl)-3-(4-ethylpiperazin-1-yl)-8-methylpyrido[2,3-d]pyridazin-5-amine] returned an inhibition at 1 µM of no less than 50%. In the case of `Cc1nnc(N[C@H](C)c2cc(N)cc(C(F)(F)F)c2)c2cc(N3CCOCC3)cnc12` [Example 87, (R)—N-(1-(3-amino-5-(trifluoromethyl)phenyl)ethyl)-8-methyl-3-morpholinopyrido[2,3-d]pyridazin-5-amine], the inhibition at 1 µM was no less than 50%. Consider `CCN1CCN(c2cnc3cc(Cl)nc(N[C@H](C)c4cc(N)cc(C(F)(F)F)c4)c3c2)CC1` [Example 88, (R)—N-(1-(3-amino-5-(trifluoromethyl)phenyl)ethyl)-7-chloro-3-(4-ethylpiperazin-1-yl)-1,6-naphthyridin-5-amine], for which the inhibition at 1 µM is no less than 50%. `C[C@@H](Nc1nc(Cl)cc2ncc(N3CCOCC3)cc12)c1cc(N)cc(C(F)(F)F)c1` [Example 89, (R)—N-(1-(3-amino-5-(trifluoromethyl)phenyl)ethyl)-7-chloro-3-morpholino-1,6-naphthyridin-5-amine] displayed an inhibition at 1 µM of no less than 50%.
